According to the supplement of paper PMC11061612:

Legend:
Experiment in all cases: combination Emax (second highest fraction inhibited in the dose matrix, 72 h); higher = more inhibition; extreme values may be limits of the assay
[1] = system: MOLP-8 (Plasma Cell Myeloma)
Method in brief: (§1)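 Cell lines in DMEM/F12 or RPMI with 10% FBS were plated in 1536-well plates, held 24 hours at 37°C, 5% CO2, then given two-drug dose matrices for 72 hours (DMSO typically 0.2%). Viability was read by CellTiter-Glo 2.0 luminescence and scaled as inhibition from 0 (vehicle wells) to 1 (blank wells). Combination Emax is the second-highest inhibition in the matrix; Bliss excess is observed combination effect minus expected EA + EB − EA·EB, EA and EB being single-agent effects.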

[2] = system: MDA-MB-415 (Breast Carcinoma)
Method in brief: as §1

[3] = system: NCI-H1341 (Small Cell Lung Carcinoma)
Method in brief: as §1

[4] = system: LS-1034 (Colorectal Carcinoma)
Method in brief: as §1

[5] = system: SNU-C2B (Colorectal Carcinoma)
Method in brief: as §1

T47D (Breast Carcinoma) = system: T47D (Breast Carcinoma)
Method in brief: as §1

[6] = system: NCI-H1876 (Small Cell Lung Carcinoma)
Method in brief: as §1

[7] = system: MOLT-13 (T-Lymphoblastic Leukemia)
Method in brief: as §1

[8] = system: CL-11 (Colorectal Carcinoma)
Method in brief: as §1

[9] = system: RCC-JW (Kidney Carcinoma)
Method in brief: as §1

[10] = system: NCI-H596 (Other Solid Carcinomas)
Method in brief: as §1

[11] = system: HT-1080 (Other Solid Carcinomas)
Method in brief: as §1

[12] = system: NCI-H3118 (Head and Neck Carcinoma)
Method in brief: as §1

[13] = system: SNU-407 (Colorectal Carcinoma)
Method in brief: as §1

[14] = system: MM1S (Plasma Cell Myeloma)
Method in brief: as §1

KALS-1 (Glioblastoma) = system: KALS-1 (Glioblastoma)
Method in brief: as §1

UACC-257 (Melanoma) = system: UACC-257 (Melanoma)
Method in brief: as §1

IST-MEL1 (Melanoma) = system: IST-MEL1 (Melanoma)
Method in brief: as §1

AM-38 (Glioblastoma) = system: AM-38 (Glioblastoma)
Method in brief: as §1

[15] = system: SKG-IIIa (Cervical Carcinoma)
Method in brief: as §1

SMILES | combination Emax [1] | combination Emax [2] | combination Emax [3] | combination Emax [4] | combination Emax [5] | combination Emax (T47D (Breast Carcinoma)) | combination Emax [6] | combination Emax [7] | combination Emax [8] | combination Emax [9] | combination Emax [10] | combination Emax [11] | combination Emax [12] | combination Emax [13] | combination Emax [14] | combination Emax (KALS-1 (Glioblastoma)) | combination Emax (UACC-257 (Melanoma)) | combination Emax (IST-MEL1 (Melanoma)) | combination Emax (AM-38 (Glioblastoma)) | combination Emax [15]
COc1nnc2ccc(N3CCC(c4ccc(OCCN5CCN(C)C(=O)[C@H]5C)cc4)CC3)nn12 [AZD5153] + CC1(C)CCC(CN2CCN(c3ccc(C(=O)NS(=O)(=O)c4ccc(NCC5CCOCC5)c([N+](=O)[O-])c4)c(Oc4cnc5[nH]ccc5c4)c3)CC2)=C(c2ccc(Cl)cc2)C1 [Venetoclax] (first compound max 1 µM, 7x7, partner max 1 µM) | 0.945 | 0.409 | 0.688 | 0.538 | 0.545 | 0.483 | 0.3 | 0.987 | 0.677 | 0.3 | 0.751 | 0.322 | 0.568 | 0.902 | 0.611 | 0.616 | 0.305 | 0.14 | 0.232 | 0.42
COc1nnc2ccc(N3CCC(c4ccc(OCCN5CCN(C)C(=O)[C@H]5C)cc4)CC3)nn12 [AZD5153] + CCN(CCO)CCCOc1ccc2c(Nc3cc(CC(=O)Nc4cccc(F)c4)[nH]n3)ncnc2c1 [AZD2811] (first compound max 1 µM, 7x7, partner max 1 µM) | 0.933 | 0.502 | 0.659 | 0.535 | 0.581 | 0.494 | 0.708 | 1 | 0.677 | 0.3 | 0.744 | 0.387 | 0.55 | 0.866 | 0.635 | 0.606 | 0.372 | 0.289 | 0.433 | 0.495
COc1nnc2ccc(N3CCC(c4ccc(OCCN5CCN(C)C(=O)[C@H]5C)cc4)CC3)nn12 [AZD5153] + C[C@@H]1COCCN1C2=NC(=NC(=C2)C3(CC3)[S@](=N)(=O)C)C4=C5C=CNC5=NC=C4 [AZD6738] (first compound max 1 µM, 7x7, partner max 10 µM) | 0.987 | 0.597 | 0.955 | 0.758 | 0.658 | 0.637 | 0.887 | 1 | 0.833 | 0.527 | 0.79 | 0.579 | 0.61 | 0.958 | 0.778 | 0.812 | 0.394 | 0.789 | 0.823 | 0.537
COc1nnc2ccc(N3CCC(c4ccc(OCCN5CCN(C)C(=O)[C@H]5C)cc4)CC3)nn12 [AZD5153] + Cc1c2c(nn1C)CSCc1cc(n(C)n1)CSc1cc(c3ccccc3c1)OCCCc1c(C(=O)O)n(C)c3c-2c(Cl)ccc13 [AZD5991] (first compound max 1 µM, 7x7, partner max 1 µM) | 1 | 0.693 | 0.897 | 0.491 | 0.568 | 0.571 | 0.949 | 1 | 0.768 | 0.3 | 0.79 | 0.378 | 0.678 | 0.977 | 1 | 0.814 | 0.501 | 0.242 | 0.295 | 0.471
COc1nnc2ccc(N3CCC(c4ccc(OCCN5CCN(C)C(=O)[C@H]5C)cc4)CC3)nn12 [AZD5153] + Cn1cnc2c(F)c(Nc3ccc(Br)cc3Cl)c(C(=O)NOCCO)cc21 [Selumetinib] (first compound max 1 µM, 7x7, partner max 10 µM) | 0.98 | 0.429 | 0.559 | 0.814 | 0.573 | 0.549 | 0.23 | 0.979 | 0.967 | 0.3 | 0.725 | 0.596 | 0.63 | 0.938 | 0.947 | 0.738 | 0.825 | 0.389 | 0.659 | 0.537
Cc1c2c(nn1C)CSCc1cc(n(C)n1)CSc1cc(c3ccccc3c1)OCCCc1c(C(=O)O)n(C)c3c-2c(Cl)ccc13 [AZD5991] + C1CN(CCC1(C(=O)N[C@@H](CCO)C2=CC=C(C=C2)Cl)N)C3=NC=NC4=C3C=CN4 [Capivasertib] (first compound max 1 µM, 7x7, partner max 3 µM) | 1 | 0.801 | 0.647 | 0.22 | 0.135 | 0.579 | 0.673 | 1 | 0.133 | 0.208 | 0.318 | 0.139 | 0.245 | 0.774 | 1 | 0.469 | 0.252 | 0.212 | 0.494 | 0.18
Cc1c2c(nn1C)CSCc1cc(n(C)n1)CSc1cc(c3ccccc3c1)OCCCc1c(C(=O)O)n(C)c3c-2c(Cl)ccc13 [AZD5991] + C=CCn1c(=O)c2cnc(Nc3ccc(N4CCN(C)CC4)cc3)nc2n1-c1cccc(C(C)(C)O)n1 [AZD1775] (first compound max 1 µM, partner max 1 µM) | 1 | 0.404 | 0.832 | 0.481 | 0.497 | 0.574 | 0.992 | 1 | 0.507 | 0.279 | 0.289 | 0.402 | 0.9 | 0.796 | 0.992 | 0.886 | 0.294 | 0.556 | 0.53 | 0.377
Cc1c2c(nn1C)CSCc1cc(n(C)n1)CSc1cc(c3ccccc3c1)OCCCc1c(C(=O)O)n(C)c3c-2c(Cl)ccc13 [AZD5991] + CC1(C)CCC(CN2CCN(c3ccc(C(=O)NS(=O)(=O)c4ccc(NCC5CCOCC5)c([N+](=O)[O-])c4)c(Oc4cnc5[nH]ccc5c4)c3)CC2)=C(c2ccc(Cl)cc2)C1 [Venetoclax] (first compound max 1 µM, 7x7, partner max 1 µM) | 1 | 0.73 | 0.634 | 0.152 | 0.201 | 0.434 | 0.881 | 1 | 0.137 | 0.23 | 0.289 | 0.188 | 0.412 | 0.717 | 0.99 | 0.305 | 0.308 | 0.2 | 0.597 | 0.251
Cc1c2c(nn1C)CSCc1cc(n(C)n1)CSc1cc(c3ccccc3c1)OCCCc1c(C(=O)O)n(C)c3c-2c(Cl)ccc13 [AZD5991] + CN(C)CCCOc1ccc(-c2ccc3ncc4c(c3c2)n(C2CCOCC2)c(=O)n4C)cn1 [AZD0156] (first compound max 1 µM, 7x7, partner max 1 µM) | 1 | 0.463 | 0.379 | 0.217 | 0.215 | 0.749 | 0.629 | 1 | 0.164 | 0.289 | 0.328 | 0.183 | 0.314 | 0.676 | 0.992 | 0.273 | 0.277 | 0.196 | 0.677 | 0.218
Cc1c2c(nn1C)CSCc1cc(n(C)n1)CSc1cc(c3ccccc3c1)OCCCc1c(C(=O)O)n(C)c3c-2c(Cl)ccc13 [AZD5991] + C[C@@H]1COCCN1C2=NC(=NC(=C2)C3(CC3)[S@](=N)(=O)C)C4=C5C=CNC5=NC=C4 [AZD6738] (first compound max 1 µM, 7x7, partner max 10 µM) | 1 | 0.554 | 0.71 | 0.673 | 0.49 | 0.44 | 0.97 | 1 | 0.645 | 0.547 | 0.318 | 0.495 | 0.601 | 0.811 | 1 | 0.926 | 0.252 | 0.788 | 0.771 | 0.333
Cc1c2c(nn1C)CSCc1cc(n(C)n1)CSc1cc(c3ccccc3c1)OCCCc1c(C(=O)O)n(C)c3c-2c(Cl)ccc13 [AZD5991] + C[C@@H](Nc1cc(F)cc(F)c1)c1cc(C(=O)N(C)C)cc2c(=O)cc(N3CCOCC3)oc12 [AZD8186] (first compound max 1 µM, 7x7, partner max 3 µM) | 1 | 0.931 | 0.706 | 0.172 | 0.177 | 0.504 | 0.711 | 1 | 0.155 | 0.461 | 0.299 | 0.157 | 0.33 | 0.672 | 0.958 | 0.436 | 0.28 | 0.303 | 0.436 | 0.24
Cc1c2c(nn1C)CSCc1cc(n(C)n1)CSc1cc(c3ccccc3c1)OCCCc1c(C(=O)O)n(C)c3c-2c(Cl)ccc13 [AZD5991] + Cc1cc2ncnn2cc1Nc1ncc2c(n1)n(C1CCOCC1)c(=O)n2C [AZD7648] (first compound max 1 µM, 7x7, partner max 10 µM) | 1 | 0.619 | 0.509 | 0.272 | 0.158 | 0.475 | 0.629 | 1 | 0.133 | 0.319 | 0.367 | 0.179 | 0.308 | 0.675 | 1 | 0.377 | 0.244 | 0.291 | 0.615 | 0.197
